# “Also recorded” adds a separate entry of the source.
# What was measured:
# [1] = system: TNF-RE tkLuc; assay: Activation of the TNF-RE tkLuc reporter (TNF-α, antiestrogens); format: cell-based; conditions: for activation of TNF-RE tkLuc by antiestrogens: in contrast to E2
# [2] = system: breast cancer; conditions: among the 5129 women in the raloxifene treatment group; median follow-up 40 months; cited from earlier work
# [3] = molecular target: T1, estrogen receptor beta (ERβ) (Homo sapiens, UniProt Q92731); assay: ERE-tkLuc luciferase expression with nyasol in cells coexpressing ERβ (FIG. 3, FIG. 5); format: cell-based
# T1 construct: expressed in transfected cells
# T1 sequence (Q92731 whole entry): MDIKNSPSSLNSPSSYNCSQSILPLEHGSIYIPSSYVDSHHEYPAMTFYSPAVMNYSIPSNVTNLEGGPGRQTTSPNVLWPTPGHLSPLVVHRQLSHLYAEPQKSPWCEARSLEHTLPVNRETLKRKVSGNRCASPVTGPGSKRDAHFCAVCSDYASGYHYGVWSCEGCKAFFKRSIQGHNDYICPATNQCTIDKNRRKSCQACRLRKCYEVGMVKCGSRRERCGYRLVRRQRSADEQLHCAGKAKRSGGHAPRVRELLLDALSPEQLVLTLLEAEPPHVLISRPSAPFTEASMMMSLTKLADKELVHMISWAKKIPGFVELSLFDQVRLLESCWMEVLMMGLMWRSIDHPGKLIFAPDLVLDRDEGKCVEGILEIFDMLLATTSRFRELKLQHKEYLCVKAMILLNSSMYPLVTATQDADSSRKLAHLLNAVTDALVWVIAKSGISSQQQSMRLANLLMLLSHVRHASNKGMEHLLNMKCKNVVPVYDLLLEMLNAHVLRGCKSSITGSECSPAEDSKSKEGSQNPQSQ
# Source text: FIG. 3 is a graph comparing luciferase expression in cells transformed with DNA encoding estrogen response element alpha linked to the minimal thymidine kinase (tk) promoter and a sequence encoding luciferase (Luc) in response to varying concentrations of nyasol in the presence of either estrogen receptor alpha (ERα) or estrogen receptor beta (ERβ).
# [4] = molecular target: T2, ERβ (Homo sapiens, UniProt Q92731); conditions: in the presence of ERβ
# T2 sequence (Q92731 whole entry): as above
# [5] = system: TNFα-RE; assay: Repression of TNFα-RE linked expression of Luc by nyasol (FIG. 4); conditions: in vitro
# [6] = molecular target: T3, ERα (Homo sapiens, UniProt P03372); assay: Concentration binding curve for Nyasol, ERα (FIG. 6)
# T3 sequence (P03372 1-595): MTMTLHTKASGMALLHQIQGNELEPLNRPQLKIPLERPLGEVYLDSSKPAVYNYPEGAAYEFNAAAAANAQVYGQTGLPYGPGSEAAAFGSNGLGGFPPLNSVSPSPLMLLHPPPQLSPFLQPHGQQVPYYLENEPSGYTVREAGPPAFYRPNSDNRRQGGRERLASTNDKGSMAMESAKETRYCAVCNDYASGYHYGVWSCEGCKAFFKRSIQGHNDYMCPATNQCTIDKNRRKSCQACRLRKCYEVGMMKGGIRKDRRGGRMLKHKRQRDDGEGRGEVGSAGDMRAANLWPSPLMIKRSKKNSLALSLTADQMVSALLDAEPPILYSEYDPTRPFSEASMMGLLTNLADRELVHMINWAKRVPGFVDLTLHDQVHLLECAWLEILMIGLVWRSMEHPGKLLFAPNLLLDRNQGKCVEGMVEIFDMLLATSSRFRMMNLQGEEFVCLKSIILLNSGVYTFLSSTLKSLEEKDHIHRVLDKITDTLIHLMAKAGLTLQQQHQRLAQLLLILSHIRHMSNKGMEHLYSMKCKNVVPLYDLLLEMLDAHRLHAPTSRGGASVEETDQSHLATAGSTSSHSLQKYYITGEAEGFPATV
# [7] = molecular target: T2, ERβ; assay: Concentration binding curve for Nyasol, ERβ (FIG. 6)
# [8] = system: MCF-7 breast cancer cells; assay: MCF-7 kidney capsule xenografts in nude mice; design: dose or concentration left out as unconfirmed; conditions: 28 days
# Procedure: MCF-7 xenografts were introduced into nude mouse kidneys. Mice were randomized to three treatment groups. […] Each treatment group was treated for 28 days, after which mice were euthanized and the kidneys containing the xenografts were excised, photographed and weighed.
# [9] = system: primary invasive breast cancer; conditions: women at high risk for breast cancer; cited from earlier work
# [10] = system: estrogen receptor-positive breast cancer; conditions: cited from earlier work
# [11] = five years of tamoxifen therapy
compound,measurement,setting,value
O=C(c1ccc(OCCN2CCCCC2)cc1)c1c(-c2ccc(O)cc2)sc2cc(O)ccc12 [raloxifene],activation of TNF-RE tkLuc by antiestrogens,[1],2 fold
same,cases of breast cancer,[2],13 cases
same,effect of addition to nyasol on activation of the ERE,"[3]; FIG. 5, added together with Nyasol, ERβ",reduced this activation
C[C@]12CC[C@@H]3c4ccc(O)cc4C[C@@H](CCCCCCCCC[S+]([O-])CCCC(F)(F)C(F)(F)F)[C@H]3[C@@H]1CC[C@@H]2O (some centres unmarked) [ICI 182780],activation of TNF-RE tkLuc by antiestrogens,[1],2 fold
"C[C@]12CC[C@@H]3c4ccc(O)cc4CC[C@H]3[C@@H]1CC[C@@H]2O [E2, estradiol]",repression of TNF-α activation of TNF-RE tkLuc,[4],60-80%
TNF-α,activation of 3 copies of the TNF-RE (−125 to −82) upstream of the tk promoter,[1]; TNF-α as stimulus,5-10 fold
"C=CC(/C=C\c1ccc(O)cc1)c1ccc(O)cc1 (centres unmarked) [Nyasol, nyasol]",repression of TNFα-RE linked expression of Luc,[5],selectively represses
same,binding of ERα with nyasol,[6],bind
same,binding of ERβ with nyasol,[7],bind
same,"ERβ-selective activation of the ERE (luciferase expression, ERβ versus ERα)","[3]; FIG. 3, varying concentrations of nyasol, ERE-tkLuc",selectively activates the ERE; also recorded: selective estrogen receptor beta agonist
same,expression of luciferase in ERE-tkLuc-transformed cells coexpressing ERβ,"[3]; FIG. 5, nyasol, control EtOH",activated the ERE
same,growth of MCF-7 kidney capsule xenografts compared to control,[8],inhibits the growth
CC/C(=C(\c1ccccc1)c1ccc(OCCN(C)C)cc1)c1ccccc1 [tamoxifen],activation of TNF-RE tkLuc by antiestrogens,[1],2 fold
same,reduction of the risk of primary invasive breast cancer,[9],49%
same,reduction of mortality from breast cancer,[10]; [11],22%
same,reduction of the risk of recurrences,[10]; [11],42%
same,ER positive breast tumors that respond,[10]; fraction of tumors,⅔

# Reference: patent US20090312274A1, “Nyasol and Analogs Thereof for the Treatment of Estrogen Receptor Beta-Mediated Diseases” (Bionovo, Inc., priority 2008, published 2009)
